Test results reported in patent US10988465B2, “CXCR4 inhibitors and uses thereof” (X4 Pharmaceuticals, Inc., priority 2016, dated 2021).
Like-named read-outs stand apart in the source and are kept apart here.

Tests used:
[1] = Mouse brain uptake assay (MBUA), 3 mg/kg IV, 0-24 h, 4 time points; format: in vivo, male CD1 mice
Protocol: Example 38: Pharmacokinetics and Brain Penetration Experiment to Determine Brain and Plasma Concentrations of Compounds after IV Administration to Male CD1 Mice
The study design (9 animals) consisted of administrating the drug (IV: 3 mg/kg (5 mL/kg) via tail vein injection) and collecting samples at terminal bleeding for plasma and brain at 0.083, 0.5 and 1 h. The IV dosing solution was prepared in 50 mM citrate buffer (pH 4.0) at 0.6 mg/mL. The blood collection was performed as follows: the animal was restrained manually and approximately 150 μL blood/time point was collected into a dipotassium EDTA tube via retro orbital puncture under anesthesia with isoflurane. The blood sample was put on ice and centrifuged to obtain a plasma sample (2000 g, 5 min under 4° C.) within 15 minutes. The brain collection was performed as follows: a mid-line incision was made in the animal's scalp and the skin was retracted. Using small bone cutters and rongeurs, the skull overlying the brain was removed. The brain was removed using a spatula and the brain rinsed with cold saline. The brain was placed in screw-top tubes, and the tubes were stored at −70° C. until analysis.
An aliquot of 30 μL sample was added to 150 μL MeCN containing 50 ng/mL IS (Dexamethasone). The mixture was vortexed for 5 min and centrifuged at 14,000 rpm for 5 min. An aliquot of 5 μL supernatant was injected for LC-MS/MS analysis.
An aliquot of 30 μL brain homogenate (brain:PBS=1:3, w/v) sample was added to 150 μL IS in MeCN (Dexamethasone, 50 ng/mL). The mixture was vortexed for 5 min and centrifuged at 14,000 rpm for 5 min. An aliquot of 5 μL supernatant was injected for LC-MS/MS analysis.
The sample analysis was performed on LCMS/MS-003 (API4000, triple quadruple) under the following conditions: positive ion, ESI, MRM detection using dexamethasone as internal standard. HPLC conditions: mobile phase A: H2O (0.025% formic acid (FA) with 1 mM NH4OAc); mobile phase B: MeOH (0.025% FA with 1 mM NH4OAc) on Waters X-Bridge C18 (2.1×50 mm, 2.5 μm) column at 60° C.
A similar experiment was performed with 4 time points taken from 0-24 h.

[2] = 7-day mouse toxicology study: toxicokinetics (plasma, brain, CSF), 30 mg/kg/day PO; format: in vivo, male C57BL/6 mice; details: for Cmax / Tmax / AUC(0-t) / AUC(0-inf) / half-life: male, C57BL/6, mouse, po
Protocol: The PO dosing solutions were prepared in 50 mM citrate buffer (pH 4.0) at 3 mg/mL. The blood collection was performed as follows: the animal was anesthetized under isoflurane. Approximately 500 μL blood/time point was collected into K2EDTA tube via cardiac puncture for terminal bleeding. ˜200 μL blood samples were put on ice and centrifuged to obtain plasma sample (2000 g, 5 min under 4° C.) within 15 minutes of collection. ˜300 blood samples were used for hematology assay. The brain collection was performed as follow: a mid-line incision was made in the animal's scalp and skin retracted. The skull overlying the brain was removed. The whole brain was collected, rinsed with cold saline, dried on filtrate paper, weighted, and snap frozen by placing into dry ice. The brain sample was homogenized for 2 min with 3 volumes of PBS (pH 7.4) by Mini-bead-beater before sample extraction.
An aliquot of 10 μL sample was added to 200 μL MeCN containing 10 ng/mL IS (Glipizide). The mixture was vortexed for 10 min and centrifuged at 6,000 rpm for 10 min. An aliquot of 1 μL constitution was injected for LC-MS/MS analysis.
An aliquot of 3 μL sample was added to 70 μL MeCN containing 10 ng/mL IS (Glipizide). The mixture was vortexed for 2 min and centrifuged at 14,000 rpm for 5 min. An aliquot of 1 μL constitution was injected for LC-MS/MS analysis.
The sample was homogenized with 3 volumes (v/w) of PBS. An aliquot of 10 μL sample was added to 200 μL MeCN containing 10 ng/mL IS (Glipizide). The mixture was vortexed for 10 min and centrifuged at 6,000 rpm for 10 min. An aliquot of 1 μL constitution was injected for LC-MS/MS analysis.
The sample analysis was performed on LCMSMS-28 (Triple Quad 6500+) under the following conditions: positive ion, ESI, MRM detection using glipizide as internal standard. HPLC conditions: mobile phase A: H2O/0.025% FA with 1 mM NH4OAc, mobile phase B: MeOH/0.025% FA with 1 mM NH4OAc on Waters X-Bridge BEH C18 (2.1×50 mm, 2.5 μm) column at 60° C.

[3] = CSF, 30 mg/kg, Day 1, CSF, 30 mg/kg PO
[4] = CSF, 30 mg/kg, Day 7, CSF, 30 mg/kg PO
[5] = brain, 30 mg/kg, Day 1, Brain, 30 mg/kg PO
[6] = brain, 30 mg/kg, Day 7, Brain, 30 mg/kg PO
[7] = plasma, 30 mg/kg, Day 1, Plasma, 30 mg/kg PO
[8] = plasma, 30 mg/kg, Day 7, Plasma, 30 mg/kg PO

`CN1CCN(c2cccc3nc([C@H]4CCC[C@@H](c5ncccc5Cl)N4)[nH]c23)CC1` (racemic) [I-122] showed a Kp ([1]; male, CD1, mouse, brain/plasma, iv, 3 mg/kg) of 4.17, a clearance ([1]; male, CD1, plasma, mouse, 3 mg/kg IV, 0-24 h, 4 time points) of 26.2 mL/min/kg and a half-life ([1]; male, CD1, plasma, mouse, 3 mg/kg IV, 0-24 h, 4 time points, read-out: t½ (converted)) of 3.5 h. For the same compound, the AUC(0-t) ([1]; male, CD1, brain, mouse, 3 mg/kg IV, 0-24 h, read-out: AUClast (b)) was 7930 ng·h/mL, the AUC(0-t) ([1]; male, CD1, plasma, mouse, 3 mg/kg IV, 0-24 h, read-out: AUClast (P)) was 1900 ng·h/mL and the Kp uu ([1]; male, CD1, unbound brain/unbound plasma, mouse, 3 mg/kg IV, 0-24 h) was 1.15. It also gave a fraction unbound ([1]; mouse, fraction unbound to brain proteins, read-out: Fu (b) %) of 0.035 and a fraction unbound ([1]; mouse, fraction unbound to plasma proteins, read-out: Fu (p) %) of 0.127.

Work on `Cc1cccnc1[C@@H]1CCC[C@H](c2nc3cccc(N4CCN(C)CC4)c3[nH]2)N1C` (racemic) [I-3, 2-((2R,6S)-1-methyl-6-(3-methylpyridin-2-yl)piperidin-2-yl)-7-(4-methylpiperazin-1-yl)-1H-benzo[d]imidazole] yielded an AUCCSF/AUCbrain ([2]; Day 1, 30 mg/kg PO) of 3.55%, an AUCCSF/AUCbrain ([2]; Day 7, 30 mg/kg PO) of 0.325% and a Cmax [2, 3] of 11.3 ng/mL. It also gave a Tmax [2, 3] of 8 h, an AUC(0-t) ([2]; CSF, 30 mg/kg, Day 1, CSF, 30 mg/kg PO, read-out: AUClast) of 151 ng·h/mL and a Cmax [2, 4] of 6.42 ng/mL. The Tmax [2, 4] was 4 h, the AUC(0-t) ([2]; CSF, 30 mg/kg, Day 7, CSF, 30 mg/kg PO, read-out: AUClast) was 35.5 ng·h/mL and the AUC(0-inf) [2, 5] was 8880 ng·h/mL. It also gave a Cmax [2, 5] of 219 ng/mL, a Tmax [2, 5] of 4 h and an AUC(0-t) ([2]; brain, 30 mg/kg, Day 1, Brain, 30 mg/kg PO, read-out: AUClast) of 4260 ng·h/mL. For the same compound, the half-life ([2]; brain, 30 mg/kg, Day 1, Brain, 30 mg/kg PO, read-out: Terminal t1/2 (converted)) was 25 h, the AUC(0-inf) [2, 6] was 29500 ng·h/mL and the Cmax [2, 6] was 615 ng/mL. For the same compound, the Tmax [2, 6] was 1 h, the AUC(0-t) ([2]; brain, 30 mg/kg, Day 7, Brain, 30 mg/kg PO, read-out: AUClast) was 10900 ng·h/mL and the half-life ([2]; brain, 30 mg/kg, Day 7, Brain, 30 mg/kg PO, read-out: Terminal t1/2 (converted)) was 34.4 h. For the same compound, the AUC(0-t) ([2]; brain, 30 mg/kg, brain, D 1-30 mg/kg, PO, read-out: AUClast (b)) was 4260 ng·h/mL, the AUC(0-t) ([2]; brain, 30 mg/kg/day, brain, D 7-30 mg/kg, PO, read-out: AUClast (b)) was 10900 ng·h/mL and the half-life ([2]; plasma, 30 mg/kg, 7 days Mouse TOX, D 1-30 mg/kg, PO, read-out: t½ (converted)) was 2.62 h. For the same compound, the AUC(0-inf) [2, 7] was 2370 ng·h/mL, the Cmax [2, 7] was 968 ng/mL and the Tmax [2, 7] was 0.5 h. For the same compound, the AUC(0-t) ([2]; plasma, 30 mg/kg, Day 1, Plasma, 30 mg/kg PO, read-out: AUClast) was 2370 ng·h/mL, the half-life ([2]; plasma, 30 mg/kg, Day 1, Plasma, 30 mg/kg PO, read-out: Terminal t1/2 (converted)) was 2.62 h and the AUC(0-inf) [2, 8] was 3570 ng·h/mL. It also gave a Cmax [2, 8] of 1210 ng/mL, a Tmax [2, 8] of 0.5 h and an AUC(0-t) ([2]; plasma, 30 mg/kg, Day 7, Plasma, 30 mg/kg PO, read-out: AUClast) of 3560 ng·h/mL. It also gave a half-life ([2]; plasma, 30 mg/kg, Day 7, Plasma, 30 mg/kg PO, read-out: Terminal t1/2 (converted)) of 3.13 h, an AUC(0-t) ([2]; plasma, 30 mg/kg, plasma, D 1-30 mg/kg, PO, read-out: AUClast (p)) of 2370 ng·h/mL and a half-life ([2]; plasma, 30 mg/kg/day, 7 days Mouse TOX, D 7-30 mg/kg, PO, read-out: t½ (converted)) of 3.13 h. For the same compound, the AUC(0-t) ([2]; plasma, 30 mg/kg/day, plasma, D 7-30 mg/kg, PO, read-out: AUClast (p)) was 3560 ng·h/mL.
